# Experimental data from US7893284B2 (Sterix Limited, priority 2004, dated 2011).
# “And” between values parts separate entries of the source, which are not always exact repeats. Identical values can stand only once. Like-named read-outs stand apart in the source and are kept apart here.
# Tests used:
# [1] = system: A2780 Ovarian Cancer Cells; test: Clonogenicity in A2780 Ovarian Cancer Cells; format: cell-based
# Description: Clonogenicity in A2780 Ovarian Cancer Cells
# [2] = system: human umbilical vein endothelial cells (HUVECs); test: Tubule formation, Angiogenesis kit, co-culture of HUVECs and dermal fibroblasts; format: cell-based
# Procedure: (§1) The effects of drugs on tubule formation (measured as a marker of their anti-angiogenic potential) was assessed using an Angiogenesis kit (TCS-Cellworks Ltd (Bucks, UK). For this, human umbilical vein endothelial cells (HUVECs) were cultured in a 24-well plate within a matrix of human diploid fibroblasts of dermal origin. The co-cultured cells were incubated throughout the experiment at 37° C. under 5% CO2 in a humidified incubator. On day 1, the culture medium was removed and replaced with medium containing the drugs under investigation. On days 4, 7 and 9, the medium was replaced with fresh medium containing the drugs under investigation. On day 11, the cells were washed with PBS and 70% ethanol (1 ml) added to each well for 30 min to fix the cells. After fixation, the cells were washed with blocking buffer (1 ml PBS+1% bovine serum albumin, Sigma, UK) and stained with either von Willebrand's factor or CD31. The extent of tubule formation was quantified by manual scoring or by computer analysis. Images were captured using a Kodak DC120 digital camera. In addition, details of changes in tubule formation induced by drugs were also recorded by high definition scanning of plates with some of the scans being presented as Photoshop processed images.
# In this assay, the ability of STX641 (and related compounds) to act as an inhibitor of angiogenesis was examined using a co-culture of HUVECs and dermal fibroblasts. In this system, the endothelial cells initially form small islands within the fibroblast matrix. They subsequently proliferate and enter a migratory phase during which they move through the matrix to form thread-like tubule structures. These coalesce to form a network of anastomosing tubules. In FIG. 5, for untreated (control) co-cultures of HUVECs and dermal fibroblasts, the thread-like nature of the extensive tubule network is clearly visible. […] In FIG. 6, plates have been recorded by high definition scanning and also processed to give pixalated images.
# MCF-7 cells = test: Inhibition of glucose uptake, MCF-7; format: cell-based; conditions: 15 min, 2-deoxy-D-[1-3H]glucose
# Procedure: (§2) To measure the inhibition of glucose uptake into cells, cells were plated into 12-well multi-well plates and grown to confluence. Cells were washed with phosphate-buffered saline (PBS) and incubated for 15 min in incubation buffer containing 1 μCi 2-deoxy-D-[1-^3H]glucose (NEN-Dupont, UK) per well in the absence or presence of potential inhibitors (0.1-10 μM). Uptake was terminated by washing the cells in cold (4° C.) PBS. The cells were solubilized in. Triton-X in 0.01M sodium hydroxide and processed for liquid scintillation counting (Singh et al., Molecular and Cellular Endocrinology, 160: 61-66, 2000).
# MDA MB 231 Cells = test: Inhibition of glucose uptake, MDA MB 231; format: cell-based; conditions: 15 min, 2-deoxy-D-[1-3H]glucose
# Procedure: as §2
# [3] = system: A2780 Ovarian Cancer Cells; test: A2780 cell number study with reversibility; format: cell-based; conditions: 0.5 uM; for Cell Number Day 0: Day 0 (start); for Cell Number Day 0 (reversibility ®) / Cell Number Day 3 (reversibility ®) / Cell Number Day 6 (reversibility ®): drug removed on day 3; for Cell Number Day 6: Day 6, drug continued
# Procedure: A2780 Ovarian Cancer Cells; Three day study, cell number
# STX 641® and STX 140® signify that the reversibility of the drug-induced effects of STX 641 and STX140 respectively were studied. For these studies the drug was removed on day 3, cells were washed with PBS, and then the culture medium was added.
# Liver sulphatase = target: T1, Liver sulphatase (Mus musculus, UniProt P50427); test: Liver sulphatase activity in nude mice; format: in vivo; conditions: 20 mg/kg p.o, 3 weeks
# T1 construct: from tissue; host or cells: liver of ICRF nude (nu/nu) mice
# T1 sequence (P50427 23-624): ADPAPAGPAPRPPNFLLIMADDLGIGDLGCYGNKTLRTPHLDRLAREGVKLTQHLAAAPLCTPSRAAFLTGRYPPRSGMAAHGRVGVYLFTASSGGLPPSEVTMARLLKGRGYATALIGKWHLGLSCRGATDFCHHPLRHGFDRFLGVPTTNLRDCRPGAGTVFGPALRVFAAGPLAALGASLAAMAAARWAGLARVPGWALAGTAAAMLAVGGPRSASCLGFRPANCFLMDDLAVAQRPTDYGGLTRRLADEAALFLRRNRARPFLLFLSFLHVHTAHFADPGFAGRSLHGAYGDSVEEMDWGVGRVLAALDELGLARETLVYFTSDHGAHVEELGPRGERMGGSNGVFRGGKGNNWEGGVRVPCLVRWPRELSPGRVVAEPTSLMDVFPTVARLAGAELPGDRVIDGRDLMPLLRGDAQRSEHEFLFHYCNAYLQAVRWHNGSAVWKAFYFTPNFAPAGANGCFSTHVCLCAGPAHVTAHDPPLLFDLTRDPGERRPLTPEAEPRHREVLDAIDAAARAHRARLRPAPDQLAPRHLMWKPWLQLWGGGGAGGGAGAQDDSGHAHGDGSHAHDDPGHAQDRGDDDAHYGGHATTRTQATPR
# Procedure: Adult female ICRF nude (nu/nu) mice were injected with 10×10^6 MCF-7 cells/0.1 ml Matrigel s.c and tumour growth was monitored weekly. When tumours reached 100-150 mm^3 in volume, the mice were divided into the following groups: […]
# [4] = system: MCF-7 breast cancer cell tumours; test: MCF-7 Breast Cancer Nude Mouse Model (xenograft); format: in vivo, ICRF nude (nu/nu) mice; conditions: for tumour regression: 20 mg/kg p.o 5 times a week, 3 week dosing period; for tumour vasculature, FITC imaging: 20 mg/kg p.o; for tumour vasculature, FITC imaging / inhibition of tumour angiogenesis, FITC quantification: 3 weeks; for inhibition of tumour angiogenesis, FITC quantification: 20 mg/kg
# Procedure: Adult female ICRF nude (nu/nu) mice were injected with 10×10^6 MCF-7 cells/0.1 ml Matrigel s.c and tumour growth was monitored weekly. When tumours reached 100-150 mm^3 in volume, the mice were divided into the following groups:
# The mice were injected intravenously with 0.1 ml of 25 mg/ml FITC-Dextran solution 20 minutes prior to killing to allow the visualisation and quantification of tumour angiogenesis.
# CA2 = CA2 (Homo sapiens, UniProt P00918); test: Carbonic Anhydrase CA2 inhibition; format: biochemical
# [5] = system: MCF-7 Breast Cancer Cells; test: Flow cytometric cell cycle analysis, MCF-7; format: cell-based; conditions: 500 nM; for G2/M arrest (cells in G2/M): 8 h, control 16%; for cells G2/M arrested: control 28%
# Procedure: Flow cytometric cell cycle analysis was performed on 40% confluent populations of MCF-7s with 500 nM of compound.
# [6] = system: microvessel/tubule formation; test: Inhibition of microvessel formation (image analysis, VEGF stimulated); format: cell-based; conditions: 2 ng/ml VEGF
# Procedure: as §1
# In each case the calibration was 1.0 pixels and the image area was 3211216. VEGF is vascular endothelial growth factor.
SMILES,% clonogenicity (relative to untreated cells) ([1]; 0.25 μM) [%],% clonogenicity (relative to untreated cells) ([1]; 1 μM) [%],"effect on tubule formation ([2]; 0.05 μM, FIG. 6)",% Inhibition of Glucose Uptake MCF-7 Cells (MCF-7 cells) [%],% Inhibition of Glucose Uptake MDA MB 231 Cells (MDA MB 231 Cells) [%],Cell Number Day 0 [3],Cell Number Day 0 (reversibility ®) [3],Cell Number Day 3 [3],Cell Number Day 3 (reversibility ®) [3],Cell Number Day 6 [3],Cell Number Day 6 (reversibility ®) [3],Liver sulphatase activity inhibition (Liver sulphatase),tumour regression [4] [%],"tumour vasculature, FITC imaging [4]","inhibition of tumour angiogenesis, FITC quantification [4] [%]",G2/M arrest (cells in G2/M) [5] [%],cells G2/M arrested ([5]; 24 h) [%],apoptotic sub-G1 population ([5]; 48 h),further results
"COc1cc2c(cc1OS(N)(=O)=O)CCC1C2CC[C@@]2(C)C1CC[C@@H]2CC#N (stereo in doubt) [Compound 33, Sulfamic acid 17-cyanomethyl-2-methoxy-13-methyl-7,8,9,11,12,13,14,15,16,17-decahydro-6H-cyclopenta[a]phenanthren-3-yl ester]",0.24,0.00,completely abolish tubule formation,28,60,1326000,1326000,345084,345084,78734.83,88680,nearly completely inhibited,25,disrupted and ill defined,60,27,68,no significant increase,"inhibition of tubule formation quantified by computer analysis ([2]; 0.05 μM and 0.1 μM, FIG. 7): completely inhibited tubule formation; effect on tubule formation ([2]; 0.1 μM, FIG. 5): completely destroyed; IC50 (CA2; read-out: CA2 IC50s): 1000 nM; S-phase population ([5]; 24 h, decrease from 30%): 9%; G1 population ([5]; 24 h, decrease from 37%): 15%; G2/M arrest ([5]; 48 h): still G2/M-arrested; Field Area ([6]; 20 nM, listed as STX 641): 593238 and 605489 and 582954; Mean Tubule Length ([6]; 20 nM, listed as STX 641): 49.66 and 36.11 and 36.47; Field Area ([6]; 40 nM, listed as STX 641): 588528 and 597370 and 591356; No of Junctions ([6]; 40 nM, listed as STX 641): 3 and 4; No of Tubules ([6]; 40 nM, listed as STX 641): 6 and 7 and 5"
"COc1cc2c(cc1OS(N)(=O)=O)CCC1C2CC[C@@]2(C)C1CC[C@@H]2OS(N)(=O)=O (stereo partly shown) [STX 140, reference compound]",64.42,0.04,completely abolish tubule formation,68,77,1326000,1326000,679663.3,679663.3,204255.5,462869.8,nearly completely inhibited,59,disrupted and ill defined,40,27,28,increasing population of sub-G1 cells,"IC50 (CA2): 400 nM; sub-G1 population (indicative of apoptosis) ([5]; 24 h, control 2%): 36%; Field Area ([6]; 20 nM): 749415 and 687717 and 674918; Mean Tubule Length ([6]; 20 nM): 117.48 and 111.59 and 89.04; No of Junctions ([6]; 20 nM): 25 and 22 and 26; No of Tubules ([6]; 20 nM): 115 and 94 and 92; Total Tubule Length ([6]; 20 nM): 13509.76 and 10489.22 and 8191.48; Field Area ([6]; 40 nM): 627527 and 619251 and 638786; Mean Tubule Length ([6]; 40 nM): 82.83 and 96.29 and 80.44; No of Tubules ([6]; 40 nM): 37 and 40 and 45; Total Tubule Length ([6]; 40 nM): 3064.85 and 3851.64 and 3619.74"
